Patent US9517222B2, “Method for the treatment of senile dementia of the Alzheimer's type” (Phenomenome Discoveries Inc., priority 2007, dated 2016)

Experiments:
Type in all cases: cell-based
wild type CHO cells = assay: Restoration of PtdEt and EtnPl pools in vitro, wild type CHO cells; details: 20 μM, 72 hours
Experimental: (§1) FIGS. 25A-B show the relative change in the total EtnPls and PtdEt content. […] Values are normalized to untreated control CHO cells, and are an average of three independent experiments. Statistical significance was determined using a two-tailed t-test.
(§2) FIGS. 26A-B show the relative change in the DHA-EtnPls and DHA-PtdEt content. […] Values are normalized to untreated control CHO cells, and are an average of three independent experiments. Statistical significance was determined using a two-tailed t-test.
(§3) To investigate whether exogenous metabolic precursors can restore the ethanolamine phospholipids deficiency in vitro, a CHO cell line deficient in plasmalogen synthesis (NRel-4) was treated with the metabolic precursors 5a (sn-1-alkyl,sn-2-DHA glycerol) for 72 hours at a concentration of 20 μM, and its lipid profile was compared with the wild type cell line.

[1] = tested on: plasmalogen-deficient NRel-4 cells; assay: Restoration of PtdEt and EtnPl pools in vitro, plasmalogen-deficient NRel-4 cells; details: 20 μM, 72 hours
Experimental: as §1, §2, §3

NRel-4 cell line = assay: Total, free and esterified cholesterol in cultured cells (Cholesterol Quantification kit)
Experimental: Total cholesterol (solid bars), esterified cholesterol (hatched bars), and free cholesterol (dotted) content is represented as μg per million cells. C_V: control CHO cells treated with ethanol carrier; N_V: NRel4 cells treated with ethanol carrier; N_5a: Nrel-4 cells treated with metabolic precursor 5a (20 μM).
To test the effect of metabolite precursors on total and esterified cholesterol in vitro, the CHO/NRel-4 cell line model was used. […] CHO cell line cultured in the presence of the ethanol vehicle (C_V) has 6.66 μg total cholestero/million cells. This reflects the wild type phenotype, and was used for normalization. The NRel-4 cell line deficient in plasmalogen synthesis cultured in the presence of ethanol vehicle (N_V) had 10.75 μg total cholestero/million cells (61% higher than control). Culturing the deficient cells with the metabolic precursor 5a (sn-1-alkyl, sn-2-DHA glycerol) for 72 hours at a concentration of 20 µM (N_5a) reduced the total cholesterol content to […] (24% higher than control). […] Treatment with 5a reduced the free cholesterol content to 5.8 μg/million cells. A reciprocal trend was observed when assaying the fraction of cholesterol that was esterified in the cell lines.

CC/C=C\C/C=C\C/C=C\C/C=C\C/C=C\C/C=C\CCC(=O)OC(CO)COCCCCCCCCCCCCCCCC (racemic) [Metabolite 5a, (4Z,7Z,10Z,13Z,16Z,19Z)-1-(hexadecyloxy)-3-hydroxypropan-2-yl docosa-4,7,10,13,16,19-hexanenoate]
Relative total EtnPls content (wild type CHO cells; normalized to untreated control CHO cells): 86.9% | Total DHA-EtnPls pool (wild type CHO cells; of CHO levels): 136.8% | Total PtdEt content (wild type CHO cells; of untreated control): 54.9% | DHA-PtdEt pool (wild type CHO cells; vs untreated control CHO): 93.5% | Relative total EtnPls content ([1]; normalized to untreated control CHO cells, vehicle 10.8%): 44.2% | Total DHA-EtnPls pool ([1]; of CHO levels, vehicle 8.7%): 72.3% | Total PtdEt content ([1]; of the control CHO): 55.9% | DHA-PtdEt pool ([1]; vs untreated control CHO): 110.6% | Esterified cholesterol (NRel-4 cell line; NRel-4 cells treated with 5a, vehicle NRel-4 1.84): 2.49 μg/million cells | Free cholesterol content (NRel-4 cell line; NRel-4 cells treated with 5a, vehicle NRel-4 8.9, CHO 4.5): 5.8 μg/million cells | Total cholesterol content (NRel-4 cell line; NRel-4 cells, 72 hours, 20 μM (N_5a), vehicle NRel-4 10.75, CHO 6.66): 8.28 μg/million cells | Total cholesterol content higher than control (NRel-4 cell line; NRel-4 cells, 72 hours, 20 μM, vs CHO vehicle control): 24% | Increase in the esterified fraction of cholesterol (NRel-4 cell line; NRel-4 cells, vs vehicle-treated NRel-4): 34%
